Where two headings read alike, the source gives them in different places.

This note sets out measurements from PMC9762789, “Chromone-based monoamine oxidase B inhibitor with potential iron-chelating activity for the treatment of Alzheimer’s disease” (Journal of Enzyme Inhibition and Medicinal Chemistry, 2022).

One data set addresses T1, MAO-B (Homo sapiens, UniProt P27338).
T1 construct: purchased Sigma-Aldrich
T1 sequence (P27338 1-520): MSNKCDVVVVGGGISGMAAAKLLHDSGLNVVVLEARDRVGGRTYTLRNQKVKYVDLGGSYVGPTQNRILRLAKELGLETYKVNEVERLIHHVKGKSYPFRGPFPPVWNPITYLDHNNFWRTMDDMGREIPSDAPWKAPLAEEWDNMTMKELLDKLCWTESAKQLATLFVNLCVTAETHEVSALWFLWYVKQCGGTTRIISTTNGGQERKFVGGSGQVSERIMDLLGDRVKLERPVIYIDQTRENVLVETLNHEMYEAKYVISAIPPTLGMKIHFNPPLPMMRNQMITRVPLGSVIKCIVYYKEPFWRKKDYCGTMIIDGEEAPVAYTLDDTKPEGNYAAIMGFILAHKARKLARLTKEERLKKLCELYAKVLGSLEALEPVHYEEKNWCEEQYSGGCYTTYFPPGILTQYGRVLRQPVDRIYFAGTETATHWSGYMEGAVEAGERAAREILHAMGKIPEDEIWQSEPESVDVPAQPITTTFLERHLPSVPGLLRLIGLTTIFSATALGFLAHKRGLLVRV
As to the kind of experiment: MAO-B kinetic study (Michaelis-Menten, Lineweaver-Burk, p-tyramine substrate). The class given is biochemical. How it is done: Figure 5. Kinetic study and cytotoxicity assay of compound 17d. […] The Cytotoxicity effect of compound 17d on PC-12 cells (C).
To examine the interaction mode of 17d on MAO-B, kinetic studies were carried out. From the Lineweaver–Burk plots (Figure 5(B)), we observed that 17d operated by a non-competitive inhibition mechanism. […] Subsequently, the potential toxic effect of 17d was investigated on pheochromocytoma (PC-12) cells.
To further examine the interaction mode of compound 17d, the type of enzyme inhibition was determined by Michealis–Menten kinetic experiments. The catalytic rates of MAO‐B enzyme were measured at six different concentrations of substrate p‐tyramine (0.05, 0.1, 0.25, 0.5, 1.0, and 1.25 mM) in the absence and in the three different concentrations (33.3, 100, and 300 nM) of compound 17d. The corresponding dose‐response curves and the nonlinear/linear regression analysis were performed using GraphPad Prism version 6 software (Graphpad Software Inc., La Jolla, CA).

Another data set in a line: PAMPA-BBB assay. The class given is in vitro ADME. An excerpt: Good blood–brain barrier (BBB) permeability is the key to exerting drug efficacy in the treatment of central nervous system diseases. To evaluate whether the target compound could penetrate BBB, a parallel artificial membrane permeability assay (PAMPA) was used to predict[32]^,[33]. […] Therefore, due to its potential ability to cross the BBB, compound 17d was selected for subsequent assay.
PAMPA was used to predict the BBB permeability of the screened compound. The detailed process has been mentioned in our early work[32]^,[33].

Data set [1] in a line: Pharmacokinetic study and brain distribution (UHPLC-MS/MS). Type of data set: in vivo. The following applies: rats; for AUC(0-t): read-out: AUC0–24; for MRT inf: read-out: MRT0–∞. The protocol:
UHPLC-MS/MS method was adopted to investigate the pharmacokinetic profiles of its metabolites after intravenous (i.v.) administration (2.34 mg/kg) and intragastric (i.g.) administration (15 mg/kg) of 17d in the tail vein of rats.
Rats were purchased from the Zhejiang Academy of Medical Sciences (Hangzhou, China). All rats were kept strictly following the requirements of experimental animal operation instructions, kept at a temperature (22 ± 2 °C), day/night cycle every 12 h in a constant environment. 12 h before the experiment, the rats were fasted but free to drink. For each rat, retro-orbital blood samples (0.2 ml) were obtained into EDTA soaked polythene tubes before drug administration and at time points of 0.083, 0.25, 0.50, 0.75, 1.0, 2.0, 4.0, 6.0, 8.0, 10, 12, and 24 h post-dosing. The collected blood samples were immediately centrifuged at 3500 rpm for 10 min at room temperature to separate plasma, and stored in a −80 °C refrigerator before use. […] The tissue was weighed and homogenised under ice bath conditions and was collected for further processing.
Biological samples were performed with ACQUITY UPLC® H Class system, which was coupled to an Xevo TQ-S micro triple quadrupole mass spectrometer (Waters, Milford, MA, USA) with an ESI source and MassLynx^TM Workstation software version 4.2 (Waters, Milford, MA, USA). We used a BEH Shield RP C18 column (100 × 2.1 mm, 1.7 µm, Waters, Milford, MA, USA) for chromatographic separation, and the column temperature is kept at 30 °C. The mobile phase was composed of 30%, 0.2% formic acid aqueous solution (A) and 70%, 0.3% formic acid methanol solution (B) and is delivered at a flow rate of 0.2 ml/min. The temperature of the autosampler is set to 30 °C. The sample injection volume is 5 µl. Pharmacokinetic parameters of the analytes were calculated using the pharmacokinetic software DAS version 2.0 (Bontz Inc., Beijing, China). All data were expressed as mean ± SD.

[2] abbreviates: rat, plasma, iv, i.v. 2.34 mg/kg, mean ± SD, n = 3.
The mark [3] stands for this setting: rat, plasma, po, i.g. 15 mg/kg, mean ± SD, n = 3.

Turning to `COc1ccc2c(=O)c(CNCCn3ccc(=O)c(O)c3C)coc2c1` [Compound 17d, 3-Hydroxy-1–(2-(((7-methoxy-4-oxo-4H-chromen-3-yl)methyl)amino)ethyl)-2-methylpyridin-4(1H)-one], the inhibition mechanism entry against MAO-B (Lineweaver–Burk plots) is reported as “non-competitive”. The Ki at MAO-B (p-tyramine substrate, GraphPad Prism, read-out: inhibition constant (Ki)) was 74.7 nM. For the same compound, the Papp in “PAMPA-BBB assay” (PAMPA-BBB, mean ± SEM of eight independent experiments, read-out: Pe ± SEM) was 2.73 ± 0.07 ×10⁻⁶ cm/s. Besides, the CNS result in “PAMPA-BBB assay” (class from PAMPA-BBB Pe) is given as “± (CNS (±) (BBB permeation uncertain); Pe (× 10^−6 cm s^−1) from 2.0 to 4.0)”. Also, in data set [1] (setting [2]), the AUC(0-inf) is 749 ± 87.1 ng·h/mL, the Cmax came out at 2150 ± 637 ng/mL, the Tmax was 4.98 min and the clearance is 52.5 mL/min/kg. Further, in data set [1] (setting [2]), the half-life is 19.2 min, the AUC(0-t) amounted to 745 ± 88.4 ng·h/mL and the MRT inf worked out at 15 ± 4.8 min. The bioavailability in data set [1] (rat, plasma, oral, i.g. 15 mg/kg vs i.v. 2.34 mg/kg, read-out: F (bioavailability)) stood at 9.25%. Further, in data set [1] (setting [3]), the AUC(0-inf) was found to be 444 ± 65.3 ng·h/mL, the Cmax was 390 ± 50.1 ng/mL, the Tmax is 15 min and the half-life was 30.6 ± 10.8 min. Besides, in data set [1] (setting [3]), the AUC(0-t) amounted to 439 ± 59.6 ng·h/mL and the MRT inf is 48.6 ± 5.4 min. Besides, the “Brain 17d content” value in data set [1] (i.g. 15 mg/kg, collected at Cmax time point) stood at 6.02 ± 0.08 ng/g. The V in data set [1] (i.v. 2.34 mg/kg, mean ± SD, n = 3) stood at 1.46 ± 0.19 L/kg.
